Measurements published in ChEMBL document CHEMBL1156829 (Proc Natl Acad Sci U S A, 2008).

Tests used:
Plasmodium falciparum [1] = experiment: NOVARTIS: Inhibition of Plasmodium falciparum W2 (drug-resistant) proliferation in erythrocyte-based infection assay; type: functional, organism-based; settings: Plasmodium falciparum, W2; read-out: EC50
[2] = NOVARTIS: Cytotoxicity against human hepatocellular carcinoma cell line (Huh7); type: toxicity, cell-based, Huh-7; settings: Huh7 cells (hepatocellular carcinoma cell line)
Plasmodium falciparum [3] = experiment: NOVARTIS: Inhibition of Plasmodium falciparum 3D7 (drug-susceptible) proliferation in erythrocyte-based infection assay; type: functional, organism-based; settings: Plasmodium falciparum, 3D7

Structure (SMILES)	EC50 (Plasmodium falciparum [1]) [nM]	CC50 [2] [µM]	EC50 (Plasmodium falciparum [3]) [nM]
O=C(Cc1ccccc1)Nc1ccc(C(=O)Nc2ccc(-c3nc4ccc(NC(=O)c5ccc(NC(=O)Cc6ccccc6)cc5)c(Cl)c4[nH]3)cc2)cc1	6020	40	8000
CCOC(=O)c1ccc(OCC2c3cc(OC)c(OC)cc3CCN2C(=O)c2ccc([N+](=O)[O-])cc2)cc1 (centres undefined)	1350	> 100	> 12500
CC(C)CNCc1cc(-c2ccc(F)cc2)ccc1O	10	58.6	104
Cc1ccc(C)c(Nc2nc3c(s2)CCCC3)c1	4500	> 100	> 12500
O=C1C(Nc2ccccc2)=C(N2CCCCC2)C(=O)c2ccccc21	590	15	383
CCc1c(C(C)S(=O)(=O)c2ccc(C)cc2)[nH]c(=O)n1-c1ccc(OC(F)(F)F)cc1 (centres undefined)	16.2	5.75	47.8
CCOc1ccc(-c2nonc2NC(=O)c2ccco2)cc1OCC	481	> 100	590
Cc1c(C(=O)N2CCC3(CCN(C)C3)C2)cnn1-c1ncc2c(n1)-c1ccccc1SC2 (centres undefined)	603	> 10	1560
CCOC(=O)C1=C(C)NC2=C(C(=O)C(C(=O)OCC)C(c3cccc(OC)c3)C2)C1c1ccc(Br)cc1 (centres undefined)	671	> 100	2170
CN(CCCNc1ccnc2cc(Cl)ccc12)C(=O)C(Cl)Cl	91.4	> 14.1	28.6
CCN1c2ccccc2N(C)C1(C)c1ccccc1 (centres undefined)	49.3	28.8	46.5
O=C(c1cc2n(n1)C(C(F)(F)F)CC(c1cccs1)N2)N1CCN(C(c2ccccc2)c2ccccc2)CC1 (centres undefined)	745	> 100	341
CCN(c1ccc(F)cc1)S(=O)(=O)c1ccc2[nH]cc(C(=O)NC(C)(C)C)c(=O)c2c1	830	> 10	> 1600
Cc1ccn2c(NC(C)(C)CC(C)(C)C)c(-c3ccccc3OC(=O)c3ccccc3F)nc2c1	6.35	> 10	951
O=C(NC1CCN(CC(O)CN(Cc2ccccc2)S(=O)(=O)c2ccccc2)C1)c1cccc2ccccc12 (centres undefined)	< 8.3	> 10	82.5
CCOc1ccc(NC(=O)C(C)CSc2nc3ccc(NC(=O)CC)cc3s2)cc1 (centres undefined)	1480	> 100	> 12500
OC(CNC1CCCCC1)Cn1c2ccccc2c2ccccc21 (centres undefined)	198	18.1	483
N#C/C(=C\NC1CCN(Cc2ccccc2)CC1)C(=O)c1cccs1	1620	> 10	220
CCC(C)(C)n1nnnc1C(c1cc2ccc(C)cc2[nH]c1=O)N1CCN(c2ccccc2)CC1 (centres undefined)	61.4	> 100	453
COc1cccc(-c2cn3c(n2)sc2cc(C(=O)NC4CCN(Cc5ccccc5)CC4)ccc23)c1	1980	> 100	513
CCN1CCN(c2cc(C)c3cc(NC(=O)/C=C/c4sccc4C)ccc3n2)CC1	> 1550	> 10	1590
COc1cc(OC)nc(C(Sc2ccc(NC(=O)c3cccs3)cc2)c2ccccc2)n1 (centres undefined)	224	> 10	175
CCOc1ccc(Nc2cc(C)nc(Nc3ccc(OCC)cc3)n2)cc1	124	9.85	104

Structure (SMILES)	EC50 (Plasmodium falciparum [1]) [nM]	CC50 [2] [µM]	EC50 (Plasmodium falciparum [3]) [nM]
COc1ccc(C2(CNCC(O)c3cccc([N+](=O)[O-])c3)CCCC2)cc1OC (centres undefined)	52.5	> 100	490
CCC(NC1CCCCC1)c1nc2ccccc2c(=O)n1C (centres undefined)	888	> 10	1110
CCNc1nc(NC(C)C)nc(NC(N)NOC)n1 (centres undefined)	> 1400	> 10	> 1150
CCCCCCN(C(=O)c1ccc(C(C)(C)C)cc1)C(CC)c1nc2ccccc2c(=O)n1-c1ccc(F)cc1 (centres undefined)	1020	> 10	795
COc1cc(NC(=O)C=Cc2ccccc2Cl)cc(OC)c1OC	302	47.8	547
O=C1CN(C(=O)CCC2CCCC2)C(c2ccc(F)cc2)c2cc(Cl)ccc2N1 (centres undefined)	180	26.3	231
CCN(CC(=O)N1CCc2cc(OC)c(OC)cc2C1C)C(=O)Nc1ccc(Br)cc1 (centres undefined)	> 692	> 10	> 1250
CC(=O)NC(=Cc1ccc(OC(F)F)cc1)C(=O)O	2270	> 100	> 12500
CN(C)c1cc[n+](CC(=O)c2ccc(Br)cc2)cc1	183	75.6	211
Cc1c(NC(=O)C2c3ccccc3C(=O)N3CCc4ccccc4C23)cccc1[N+](=O)[O-] (centres undefined)	1520	> 100	4070
CC(=O)Nc1ccc(-c2nc3c4ccccc4c4ccc(I)cc4c3[nH]2)cc1	362	> 100	296
CN1CCN(c2nc(NN=Cc3cc(Br)c(O)cc3O)nc(Nc3ccc([N+](=O)[O-])cc3)n2)CC1	104	> 10	321
CCCCc1ccc(Nc2ncnc3sc4c(c23)CCCC4)cc1	3390	> 100	11400
CCCCc1ccc(C(=O)Oc2ccccc2-c2nc3cc(C)ccn3c2NC(C)(C)CC(C)(C)C)cc1	107	> 10	616
CCCOC(=O)C1=C(C)NC2=C(C(=O)CC(c3ccc(OC)c(OC)c3)C2)C1c1ccc([N+](=O)[O-])cc1 (centres undefined)	20.5	> 100	25.9
COc1cc(C=C2CCC(=Cc3cc(OC)c(OC)c(OC)c3)C2=O)cc(OC)c1OC	2750	> 100	2210
COc1cc2c(-c3cc(Br)ccc3O)nc3c(c(Cc4ccccc4)nn3-c3ccccc3)c2cc1OC	145	> 100	146
COc1cc(C(=O)N2CCN(Cc3cccc(Br)c3)CC2)cc(OC)c1OC	5580	> 100	> 12500
CSc1nnc(NC(=O)C2CC2)s1	1910	> 100	> 12500
CN(C)CCCNc1ncnc2c1[nH]c1ccc(Br)cc12	231	26.5	48.1
CCOc1cc(C2CC(=O)NC3=C2C(=O)CC(c2ccc(OC)c(OC)c2)C3)ccc1O (centres undefined)	155	> 100	781
CCOc1ccc2nc(SCc3nc(N)nc(N4CCOCC4)n3)sc2c1	> 1250	> 10	> 627
CC(=O)N(C1=C(N2CCCC2)C(=O)c2ccccc2C1=O)c1ccccc1C	31.9	11.5	83.9

Structure (SMILES)	EC50 (Plasmodium falciparum [1]) [nM]	CC50 [2] [µM]	EC50 (Plasmodium falciparum [3]) [nM]
COC(=O)c1cn([C@H]2C[C@@H](C(=O)NCc3ccc(OC)cc3)N(Cc3ccsc3)C2)nn1	200	> 7.38	> 1710
COc1cccc(OC)c1C(=O)Nn1c(-c2cccc(C)c2)nc2ccccc2c1=O	> 1030	> 10	> 1250
OC(CNC1CCN(Cc2ccccc2)CC1)COc1ccc(Br)cc1 (centres undefined)	499	> 10	745
Cc1n(-c2ccccc2)c2c([n+]1C)C(=O)c1ccccc1C2=O	12.9	0.427	6.55
O=C(NCCCN1CCOCC1)c1c[nH]c2ccc(S(=O)(=O)N3CCc4ccccc43)cc2c1=O	1110	> 100	610
O=C(NCC1CCCO1)c1cnc(N2CCN(c3ncccn3)CC2)c2ccccc12 (centres undefined)	> 1400	> 10	> 637
OC(CN1CCN(C2c3ccccc3-c3ccccc32)CC1)Cn1c2ccc(Cl)cc2c2cc(Cl)ccc21 (centres undefined)	278	> 10	1200
O=C1CC(c2nc3ccccc3n2CCCOc2ccccc2)CN1c1ccc(F)cc1 (centres undefined)	239	> 10	> 882
O=C(c1ccc2ccccc2c1)N1CCc2ccccc21	4570	> 100	3500
CCC(C)N(CCC(=O)N1CCN(Cc2ccccc2)CC1)C(=O)Nc1cccc(Cl)c1Cl (centres undefined)	> 1060	> 8.39	> 1560
CC1=C(C(=O)Nc2ccc(C)cc2C)C(c2cc(Br)ccc2F)n2ncc(C(=O)Nc3ccc(C)cc3)c2N1 (centres undefined)	857	> 100	2550
COc1ccc(-c2noc(CNC(=O)c3cccc(I)c3)n2)cc1	1580	> 100	> 12500
CCC(C)(C)c1ccc(OCC(O)CNCc2ccccc2)c(C(C)(C)CC)c1 (centres undefined)	100	9.2	361
Nc1nonc1-n1nnc(C(=O)NN=Cc2cc(Br)cs2)c1-c1ccccc1	1100	> 100	692
CCCCCCCCCCCC(=O)Oc1ccccc1-c1nc2ccccn2c1NC(C)(C)CC(C)(C)C	93.6	> 10	1260
CCOc1ccc(C2c3[nH]c4ccccc4c3CCN2C(=O)c2cc3cc(Br)ccc3o2)cc1 (centres undefined)	135	> 100	316
COc1cccc(-c2ccc(O)c(CN(C)CCc3ccc(OC)c(OC)c3)c2)n1	52.3	57.9	337
Cc1ccc(C[n+]2cc(-c3ccc(F)cc3)n3c2CCC3)cc1	321	> 100	867
CCOC(=O)c1nc2nc(C)cc(O)n2n1	> 940	> 10	> 739
O=C(CSc1ccc2nnc(-c3cccs3)n2n1)Nc1ccccc1	> 3470	> 100	1400
Cc1ccc(-c2nn(-c3ccccc3)c3[nH]c(=O)c(CNCc4ccccc4)cc23)cc1	467	> 100	1610
FC(F)(F)c1cccc(-c2nc3c(s2)CN(C2CCCC2)CC3)c1	2950	73	5370
